From ChEMBL document CHEMBL4138123, “Design, synthesis and biological evaluation of novel pyrazolochalcones as potential modulators of PI3K/Akt/mTOR pathway and inducers of apoptosis in breast cancer cells” (Eur J Med Chem, 2017)

Columns and labels:
Format in all cases: functional
[1] = test system: OVCAR-4; test: Cytotoxicity against human OVCAR4 cells assessed as cell growth at 0.1 uM after 48 hrs by sulforhodamine B assay relative to control; conditions: OVCAR-4, 48 h, read-out: Activity
[2] = test system: BT-549; test: Cytotoxicity against human BT549 cells assessed as cell growth at 1 uM after 48 hrs by sulforhodamine B assay relative to control; conditions: BT-549, 48 h, read-out: Activity
[3] = test system: A549; test: Cytotoxicity against human A549/ATCC cells assessed as cell growth at 100 uM after 48 hrs by sulforhodamine B assay relative to control; conditions: A549, 48 h, read-out: Activity
[4] = test system: NCI-H226; test: Cytotoxicity against human NCI-H226 cells assessed as cell growth at 1 uM after 48 hrs by sulforhodamine B assay relative to control; conditions: NCI-H226, 48 h, read-out: Activity
[5] = test system: RXF 393; test: Cytotoxicity against human RXF393 cells assessed as cell growth at 0.01 uM after 48 hrs by sulforhodamine B assay relative to control; conditions: RXF 393, 48 h, read-out: Activity
[6] = test system: MCF7; test: Cytotoxicity against human MCF7 cells assessed as cell growth at 10 uM after 48 hrs by sulforhodamine B assay relative to control; conditions: MCF7, 48 h, read-out: Activity
[7] = test system: NCI/ADR-RES; test: Cytotoxicity against human NCI/ADR-RES cells assessed as cell growth at 0.1 uM after 48 hrs by sulforhodamine B assay relative to control; conditions: read-out: Activity
[8] = test system: MDA-MB-468; test: Cytotoxicity against human MDA-MB-468 cells assessed as cell growth at 0.1 uM after 48 hrs by sulforhodamine B assay relative to control; conditions: MDA-MB-468, 48 h, read-out: Activity
[9] = test system: MOLT-4; test: Cytotoxicity against human MOLT4 cells assessed as cell growth at 0.1 uM after 48 hrs by sulforhodamine B assay relative to control; conditions: MOLT-4, 48 h, read-out: Activity
[10] = test system: SNB-19; test: Cytotoxicity against human SNB19 cells assessed as cell growth at 0.01 uM after 48 hrs by sulforhodamine B assay relative to control; conditions: SNB-19, 48 h, read-out: Activity
[11] = test system: HT-29; test: Cytotoxicity against human HT-29 cells assessed as growth inhibition after 48 hrs by sulforhodamine B assay; conditions: HT-29, 48 h
[12] = test system: SK-MEL-2; test: Cytotoxicity against human SK-MEL-2 cells assessed as growth inhibition after 48 hrs by sulforhodamine B assay; conditions: SK-MEL-2, 48 h
[13] = test system: OVCAR-4; test: Cytotoxicity against human OVCAR4 cells assessed as cell growth at 10 uM after 48 hrs by sulforhodamine B assay relative to control; conditions: OVCAR-4, 48 h, read-out: Activity
[14] = test system: NCI-H522; test: Cytotoxicity against human NCI-H522 cells assessed as growth inhibition after 48 hrs by sulforhodamine B assay; conditions: NCI-H522, 48 h
[15] = test system: BT-549; test: Cytotoxicity against human BT549 cells assessed as cell growth at 100 uM after 48 hrs by sulforhodamine B assay relative to control; conditions: BT-549, 48 h, read-out: Activity
[16] = test system: MCF7; test: Cytotoxicity against human MCF7 cells assessed as cell growth at 100 uM after 48 hrs by sulforhodamine B assay relative to control; conditions: MCF7, 48 h, read-out: Activity
[17] = test system: HCC 2998; test: Cytotoxicity against human HCC2998 cells assessed as cell growth at 100 uM after 48 hrs by sulforhodamine B assay relative to control; conditions: HCC 2998, 48 h, read-out: Activity
[18] = test system: HOP-62; test: Cytotoxicity against human HOP62 cells assessed as cell growth at 100 uM after 48 hrs by sulforhodamine B assay relative to control; conditions: HOP-62, 48 h, read-out: Activity
[19] = test system: OVCAR-5; test: Cytotoxicity against human OVCAR5 cells assessed as cell growth at 0.1 uM after 48 hrs by sulforhodamine B assay relative to control; conditions: OVCAR-5, 48 h, read-out: Activity
[20] = test system: ACHN; test: Cytotoxicity against human ACHN cells assessed as cell growth at 0.1 uM after 48 hrs by sulforhodamine B assay relative to control; conditions: read-out: Activity
[21] = test system: SK-MEL-5; test: Cytotoxicity against human SK-MEL-5 cells assessed as cell growth at 10 uM after 48 hrs by sulforhodamine B assay relative to control; conditions: SK-MEL-5, 48 h, read-out: Activity
[22] = test system: NCI-H226; test: Cytotoxicity against human NCI-H226 cells assessed as cell growth at 0.1 uM after 48 hrs by sulforhodamine B assay relative to control; conditions: NCI-H226, 48 h, read-out: Activity
[23] = test system: Hs-578T; test: Cytotoxicity against human Hs 578T cells assessed as cell growth at 100 uM after 48 hrs by sulforhodamine B assay relative to control; conditions: read-out: Activity
[24] = test system: NCI-H522; test: Cytotoxicity against human NCI-H522 cells assessed as cell growth at 100 uM after 48 hrs by sulforhodamine B assay relative to control; conditions: NCI-H522, 48 h, read-out: Activity
[25] = test system: ACHN; test: Cytotoxicity against human ACHN cells assessed as cell growth at 1 uM after 48 hrs by sulforhodamine B assay relative to control; conditions: read-out: Activity
[26] = test system: SR; test: Cytotoxicity against human SR cells assessed as cell growth at 0.01 uM after 48 hrs by sulforhodamine B assay relative to control; conditions: read-out: Activity
[27] = test system: Malme-3M; test: Cytotoxicity against human MALME-3M cells assessed as cell growth at 10 uM after 48 hrs by sulforhodamine B assay relative to control; conditions: read-out: Activity
[28] = test system: NCI-H460; test: Cytotoxicity against human NCI-H460 cells assessed as cell growth at 0.01 uM after 48 hrs by sulforhodamine B assay relative to control; conditions: NCI-H460, 48 h, read-out: Activity
[29] = test system: T47D; test: Cytotoxicity against human T47D cells assessed as cell growth at 10 uM after 48 hrs by sulforhodamine B assay relative to control; conditions: read-out: Activity
[30] = test system: U-251; test: Cytotoxicity against human U251 cells assessed as cell growth at 1 uM after 48 hrs by sulforhodamine B assay relative to control; conditions: U-251, 48 h, read-out: Activity
[31] = test system: T47D; test: Cytotoxicity against human T47D cells assessed as cell growth at 100 uM after 48 hrs by sulforhodamine B assay relative to control; conditions: read-out: Activity
[32] = test system: A498; test: Cytotoxicity against human A498 cells assessed as growth inhibition after 48 hrs by sulforhodamine B assay; conditions: A498, 48 h
[33] = test system: MDA-MB-468; test: Cytotoxicity against human MDA-MB-468 cells assessed as growth inhibition after 48 hrs by sulforhodamine B assay; conditions: MDA-MB-468, 48 h
[34] = test system: BT-549; test: Cytotoxicity against human BT549 cells assessed as growth inhibition after 48 hrs by sulforhodamine B assay; conditions: BT-549, 48 h
[35] = test system: PC-3; test: Cytotoxicity against human PC3 cells assessed as cell growth at 100 uM after 48 hrs by sulforhodamine B assay relative to control; conditions: PC-3, 48 h, read-out: Activity
[36] = test system: ACHN; test: Cytotoxicity against human ACHN cells assessed as cell growth at 100 uM after 48 hrs by sulforhodamine B assay relative to control; conditions: read-out: Activity

COc1cc(-c2cc(/C=C/C(=O)c3ccc(F)c(F)c3)[nH]n2)cc(OC)c1OC
growth at 0.1 µM [1]: 111%
growth at 1 µM [2]: 92%
growth at 100 µM [3]: -15%
growth at 1 µM [4]: 95%
growth at 0.01 µM [5]: 94%
growth at 10 µM [6]: 2%
growth at 0.1 µM [7]: 98%
growth at 0.1 µM [8]: 94%
growth at 0.1 µM [9]: 106%
growth at 0.01 µM [10]: 89%
LC50 [11]: 40.8 µM
TGI [11]: 6.46 µM
LC50 (concentration killing 50% of cells) [12]: 41.1 µM
TGI [12]: 5.89 µM
growth at 10 µM [13]: 17%
LC50 [14]: 65.2 µM
TGI [14]: 4.48 µM
growth at 100 µM [15]: -58%
growth at 100 µM [16]: -20%
growth at 100 µM [17]: -11%
growth at 100 µM [18]: 4%
growth at 0.1 µM [19]: 93%
growth at 0.1 µM [20]: 106%
growth at 10 µM [21]: -21%
growth at 0.1 µM [22]: 97%
growth at 100 µM [23]: -16%
growth at 100 µM [24]: -53%
growth at 1 µM [25]: 100%
growth at 0.01 µM [26]: 100%
growth at 10 µM [27]: -3%
growth at 0.01 µM [28]: 106%
growth at 10 µM [29]: 9%
growth at 1 µM [30]: 87%
growth at 100 µM [31]: -11%
LC50 [32]: > 100 µM
TGI [32]: 7.13 µM
GI50 [33]: 2.22 µM
LC50 [33]: > 100 µM
TGI [33]: 9.47 µM
LC50 (concentration killing 50% of cells) [34]: 79.5 µM
TGI [34]: 19.3 µM
growth at 100 µM [35]: -41%

COc1ccc(-c2cc(/C=C/C(=O)c3ccc(N)cc3)[nH]n2)cc1OC
growth at 0.1 µM [1]: 90%
growth at 1 µM [2]: 80%
growth at 100 µM [3]: -76%
growth at 1 µM [4]: 86%
growth at 0.01 µM [5]: 99%
growth at 10 µM [6]: -6%
growth at 0.1 µM [7]: 104%
growth at 0.1 µM [8]: 91%
growth at 0.1 µM [9]: 106%
growth at 0.01 µM [10]: 96%
GI50 [11]: 2.6 µM
LC50 [11]: 58.9 µM
TGI [11]: 6.91 µM
GI50 [12]: 8.44 µM
LC50 (concentration killing 50% of cells) [12]: 53.2 µM
TGI [12]: 22.2 µM
growth at 10 µM [13]: 24%
GI50 [14]: 1.65 µM
LC50 [14]: 6.3 µM
TGI [14]: 3.22 µM
growth at 100 µM [15]: -98%
growth at 100 µM [16]: -58%
growth at 100 µM [17]: -91%
growth at 100 µM [18]: -98%
growth at 0.1 µM [19]: 95%
growth at 0.1 µM [20]: 93%
growth at 10 µM [21]: 6%
growth at 0.1 µM [22]: 91%
growth at 100 µM [23]: 4%
growth at 100 µM [24]: -92%
growth at 1 µM [25]: 88%
growth at 0.01 µM [26]: 98%
growth at 10 µM [27]: 37%
growth at 0.01 µM [28]: 101%
growth at 10 µM [29]: 28%
growth at 100 µM [36]: -95%
growth at 1 µM [30]: 88%
growth at 100 µM [31]: -40%
GI50 [32]: 2.37 µM
LC50 [32]: 26.2 µM
TGI [32]: 7.09 µM
GI50 [33]: 1.55 µM
LC50 [33]: 7.8 µM
TGI [33]: 3.48 µM
GI50 [34]: 1.5 µM
LC50 (concentration killing 50% of cells) [34]: 5.77 µM
TGI [34]: 2.94 µM
growth at 100 µM [35]: -48%
